Measured values from article PMC12401824, “Studies on the impact of modifications at the Gln-Trp site in RM2-based GRPR ligands” (EJNMMI Research, 2025).
“And” between values parts separate entries of the source, which are not always exact repeats. Identical values can stand only once. “Also recorded” adds a separate entry of the source. Like-named read-outs stand apart in the source and are kept apart here. Starred links: 1 amine or outer side, 2 acyl side, 3 side chain; linkers in the order of their positions; H or OH if unused. Non-standard residues stand in square brackets, D forms with d. Residues, ends and D or L forms follow the SMILES beside them. *: point of attachment. DOTA = O=C(O)CN1CCN(CC(=O)O)CCN(CC(=O)*)CCN(CC(=O)O)CC1; Sta = CC(C)C[C@H](N)[C@@H](O)CC(=O)O; Bta = N[C@@H](Cc1csc2ccccc12)C(=O)O; X1 = O=C(CN1CCC(N[*:1])CC1)[*:2]; hSer = N[C@@H](CCO)C(=O)O

Columns and labels:
[1] = Metabolic stability in vivo in mice (intact tracer in serum); conditions: ^177Lu-labeled, healthy mice
Description: Metabolic stability in vivo was determined according to a previously published protocol by injecting approximately 30–40 MBq (1 nmol, 150 µL) of the ^177Lu-labeled compounds into the tail vein of anesthetized CB17-SCID mice (n = 3).

[2] = Biodistribution in PC-3 tumor-bearing CB17-SCID mice; assay type: in vivo; conditions: mouse, intravenous, 100 pmol, ^177Lu-labeled, 100 pmol, n = 4; for tissue uptake at 1 h: 1 h p.i.; for tissue uptake at 24 h: 24 h p.i.
Description: To establish tumor xenografts, PC-3 cells (5.0 × 10^6 cells per 200 µL) were suspended in a 1/1 mixture (v/v) of Dulbecco’s modified eagle's medium/Ham’s F-12 with Glutamax-I (v/v = 1/1) and Cultrex® Basement Membrane Matrix Type 3 (Trevigen Inc., Gaithersburg, MD, USA) and inoculated subcutaneously onto the right shoulder of CB17-SCID mice (Charles River Laboratories International Inc., Sulzfeld, Germany). Mice (n = 4) were used for experiments when tumor volume has reached 125–500 mm^3 (2–3 weeks after inoculation).
Biodistribution. […] (n = 4), respectively. Selected organs were removed, weighted and measured in a γ-counter.

[3] = tested on: PC-3 tumor xenograft; experiment: Competition study: co-injection of excess Lu-RM2 in PC-3 tumor-bearing mice; assay type: in vivo; conditions: ^177Lu-labeled, 100 pmol; co-injection of 40 nmol Lu-RM2; 1 h p.i.; n = 3
Description: µPET/CT imaging. Imaging studies were performed at a MILabs VECTor^4 small-animal SPECT/PET/OI/CT device (MILabs, Utrecht, the Netherlands). Data were reconstructed using the MILabs Rec software (version 10.02) and a pixel-based Similarity-Regulated Ordered Subsets Expectation Maximization (SROSEM) algorithm, followed by data analysis using the PMOD4.0 software (PMOD TECHNOLOGIES LLC, Zurich, Switzerland). […] Static images were recorded at 1 h p.i. with an acquisition time of 45–60 min (3–4 frames, 15 min each) using the HE-GP-RM collimator and a step-wise multi-planar bed movement. Depending on the size of the mouse, either four or eight bed position were required, with an imaging time of ~ 1.8 min or ~ 3.6 min per bed position. For competition studies, 3.62 mg/kg (40 nmol) of Lu-RM2 (10^−3 M in PBS) were co-administered.
Figure S6. […] Data are expressed as mean ± SD (n = 4). […] Data are expressed as mean ± SD (n = 3).

[4] = adrenal, read-out: Uptake in Adrenal
[5] = blood, read-out: Uptake in Blood
[6] = heart, read-out: Uptake in Heart
[7] = intestine, read-out: Uptake in Intestine
[8] = kidney, read-out: Uptake in Kidney
[9] = liver, read-out: Uptake in Liver
[10] = muscle, read-out: Uptake in Muscle
[11] = pancreas, read-out: Uptake in Pancreas
[12] = spleen, read-out: Uptake in Spleen
[13] = stomach, read-out: Uptake in Stomach
[14] = tumor, read-out: Uptake in Tumor

SMILES	Intact compound in murine serum in vivo, 15 min after injection [1]	Intact compound in murine serum in vivo, 30 min after injection [1]	tissue uptake at 1 h [2, 4]	tissue uptake at 24 h [2, 4]	tissue uptake at 1 h [2, 5]	tissue uptake at 24 h [2, 5]	tissue uptake at 1 h ([2]; bone, read-out: Uptake in Bone)	tissue uptake at 24 h ([2]; bone, read-out: Uptake in Bone)	tissue uptake at 1 h [2, 6]	tissue uptake at 24 h [2, 6]	tissue uptake at 1 h [2, 7]	tissue uptake at 24 h [2, 7]	tissue uptake at 1 h [2, 8]	tissue uptake at 24 h [2, 8]	tissue uptake at 1 h [2, 9]	tissue uptake at 24 h [2, 9]	tissue uptake at 1 h ([2]; lung, read-out: Uptake in Lung)	tissue uptake at 24 h ([2]; lung, read-out: Uptake in Lung)	tissue uptake at 1 h [2, 10]	tissue uptake at 24 h [2, 10]	also measured
CC(C)C[C@H](NC(=O)C[C@H](O)[C@H](CC(C)C)NC(=O)[C@H](Cc1c[nH]cn1)NC(=O)CNC(=O)[C@@H](NC(=O)[C@H](C)NC(=O)[C@H](Cc1csc2ccccc12)NC(=O)[C@H](CCC(N)=O)NC(=O)[C@@H](Cc1ccccc1)NC(=O)CN1CCC(NC(=O)CN2CCN(CC(=O)O)CCN(CC(=O)O)CCN(CC(=O)O)CC2)CC1)C(C)C)C(N)=O [[^177Lu]Lu-[Bta^8]RM2, metal not drawn] ({DOTA}-[X1][dF]Q[Bta]AVGH[Sta]L-NH2)	< 20% and ~ 10%	did not show any intact; also recorded: could not detect any intact	1.1 ± 0.1 %ID/g	0.59 ± 0.33 %ID/g	1.6 ± 0.1 %ID/g	0.04 ± 0.04 %ID/g	0.9 %ID/g	2.58 ± 1.05 %ID/g	0.7 %ID/g	0.09 ± 0.01 %ID/g	1 ± 0.3 %ID/g	0.28 ± 0.07 %ID/g	4.4 ± 0.4 %ID/g	2.07 ± 0.23 %ID/g	1.1 ± 0.1 %ID/g	0.77 ± 0.09 %ID/g	1.8 ± 0.2 %ID/g	0.22 ± 0.11 %ID/g	0.2 ± 0.1 %ID/g	0.02 ± 0.02 %ID/g	tissue uptake at 1 h [2, 11]: 3.7 ± 1.4 %ID/g; tissue uptake at 24 h [2, 11]: 0.17 ± 0.02 %ID/g; tissue uptake at 24 h [2, 12]: 0.32 ± 0.06 %ID/g; tissue uptake at 1 h [2, 13]: 1.3 ± 0.3 %ID/g; tissue uptake at 24 h [2, 13]: 0.27 ± 0.08 %ID/g; tissue uptake at 1 h [2, 14]: 12.1 ± 1.8 %ID/g; tissue uptake at 24 h [2, 14]: ~2 %ID/g; Specificity of tumor accumulation (competition with excess of Lu-RM2) [3]: specific
CC(C)C[C@H](NC(=O)C[C@H](O)[C@H](CC(C)C)NC(=O)[C@H](Cc1c[nH]cn1)NC(=O)CNC(=O)[C@@H](NC(=O)[C@H](C)NC(=O)[C@H](Cc1c[nH]c2ccccc12)NC(=O)[C@H](CCO)NC(=O)[C@@H](Cc1ccccc1)NC(=O)CN1CCC(NC(=O)CN2CCN(CC(=O)O)CCN(CC(=O)O)CCN(CC(=O)O)CC2)CC1)C(C)C)C(N)=O [[^177Lu]Lu-[Hse^7]RM2, metal not drawn] ({DOTA}-[X1][dF][hSer]WAVGH[Sta]L-NH2)	< 20% and ~ 19%	did not show any intact; also recorded: could not detect any intact	1.2 ± 0.5 %ID/g	0.61 ± 0.21 %ID/g	1 ± 0.2 %ID/g	0.02 %ID/g	0.2 %ID/g	2.37 ± 1.13 %ID/g	0.4 ± 0.1 %ID/g	0.11 ± 0.03 %ID/g	1.6 ± 0.2 %ID/g	0.38 ± 0.11 %ID/g	4.8 ± 0.3 %ID/g	1.94 ± 0.28 %ID/g	0.9 ± 0.1 %ID/g	0.96 ± 0.15 %ID/g	0.9 ± 0.2 %ID/g	0.17 ± 0.02 %ID/g	0.2 %ID/g	0.01 %ID/g	tissue uptake at 1 h [2, 11]: 8 ± 0.5 %ID/g; tissue uptake at 24 h [2, 11]: 0.14 ± 0.01 %ID/g; tissue uptake at 1 h [2, 12]: 0.6 ± 0.2 %ID/g; tissue uptake at 24 h [2, 12]: 0.36 ± 0.03 %ID/g; tissue uptake at 1 h [2, 13]: 2.2 ± 0.3 %ID/g; tissue uptake at 24 h [2, 13]: 0.26 ± 0.01 %ID/g; tissue uptake at 1 h [2, 14]: 16.6 ± 1.6 %ID/g; tissue uptake at 24 h [2, 14]: ~2 %ID/g; Specificity of tumor accumulation (competition with excess of Lu-RM2) [3]: specific
